Data taken from patent US9073851B2, “Compositions and methods for treating cancer” (Board of Regents, The University of Texas System, priority 2011, dated 2015).

Tests used:
MCF10A = experiment: MTS cell viability assay on normal breast epithelium; assay type: cell-based, human; conditions: at IC50 to IC90 doses in breast cancer cells (MCF7)
Source text: (§1) (aka proliferation assay, in this case MTS assay was used. MTS, MTT, XTT all similar assays often used as cell viability/toxicity assay). Cell viability in response to compounds such as 5NT and KD06 was studied with a tetrazolium/formazan based assay (MTS, Celltiter 96 aqueous one solution cell proliferation assay, Promega, WI) [Akar U, Chaves-Reyez A, Barria g Tari A, Sanguino A, Kondo Y, Kondo S, Arun B, Lopez-Berestein G, Ozpolat B: Silencing of Bcl-2 expression by small interfering RNA induces autophagic cell death in MCF-7 breast cancer cells. Autophagy 2008, 4:669-679, Ozpolat 2007 MCR]. Cells were seeded in 96 wells plates at a density of 1.5 to 3.0×10^3 cells per well in 100 μl of medium. Next day the medium was removed and cells were treated with the drug in 100 μl of medium for 72 hours. Plates were read at 490 nm wavelength in an Elisa plate reader (Kinetic Microplate Reader, Molecular Devices Corporation, Sunnyvale, Calif.).

breast cancer cells = experiment: Cell viability assay, breast cancer cell panel or cell line not stated; assay type: cell-based, human
Source text: as §1

5-HT1B/1D receptor = experiment: cAMP levels; assay type: cell-based
[1] = test system: 5-HT1B or 5-HT1D receptor; experiment: Effect on cell proliferation after siRNA knockdown of 5-HT1B or 5-HT1D receptor; assay type: cell-based
MCF7 cells = experiment: MTS cell viability/proliferation assay; assay type: cell-based, human
Source text: (§2) Viable and dead cells were detected by the trypan blue exclusion assay, where viable cells (non-stained) with intact membrane are able to exclude the dye, while dead cells take up the coloring blue agent from the media. To quantitatively assess the viability and/or proliferation of cells a MTS assay was used, which incorporates a redox indicator that changes color in response to metabolic activity. To study cell viability in response to CaMK-III siRNA or control siRNA and plasmid encoding CaMK-III or empty plasmid transfection cells were seeded in 96-well plates at a density of 3×10^3 cells per well in 100 μl of medium. Next day the medium was removed and cells were transfected with siRNA at different concentrations in 100 μl of medium plus transfection mix. Two days after transfection, the medium was removed and replaced by 180 μl of medium plus 20 μl of MTS and the cells were incubated under normal conditions until the color changed. Plates were read at dual wavelengths (570-595 nm) in an Elisa plate reader (Kinetic Microplate Reader, Molecular Devices Corporation, Sunnyvale, Calif.).
as §1

MCF7 breast cancer cells = experiment: Acridine orange staining of acidic vesicular organelles (autophagy), FACS; assay type: cell-based, human; conditions: for percentage of acridine orange positive cells: flow cytometry, control untreated cells 2%
Source text: To determine the role of serotonin 5-HT1B receptor in cell survival and the mechanism of growth inhibition induced by HT1B inhibitors we investigated cell death in breast cancer cells. When 5-HT1B was inhibited by either SB224289 or SB216641 we detected marked induction of autophagy (FIG. 28A) as detected by acridine orange staining, apoptosis by Annexin V and necrosis by propidium iodide (PI) staining and FACS analysis (FIG. 28B) in MCF7 breast cancer cells. Induction of acidic vacuoles by acridine orange staining was also observed in MDA-MB231 cells after SB224289 treatment for 72 hours (p<0.05) (FIG. 28C).
(§3) To detect and quantify acidic vesicular organelles, we stained cells with acridine orange as described previously.^31 The number of acridine orange-positive cells was determined by fluorescence-activated cell sorting (FACS) analysis. Cell morphology was examined using fluorescence microscopy (Nikon, Melville, N.Y.) with the cells remaining in their culture flasks.

ERK (p42/p44) and LC3-II = experiment: Western blot of p-ERK and LC3-II after 5-HT1B antagonists; assay type: cell-based, human; conditions: for phosphorylation of ERK (p42/p44): Western blot
Method: After treatment the cells were trypsinized and collected by centrifugation, and whole-cell lysates were obtained using a lysis buffer as described previously [Akar U, et al. Mol Cancer Res 2007: 5:241-249]. Total protein concentration was determined using a DC protein assay kit (Bio-Rad, Hercules, Calif.). Aliquots containing […] of total protein from each sample were subjected to sodium dodecyl sulfate-polyacrylamide gel electrophoresis (SDS-PAGE) with a 4-20% gradient and electrotransferred to nitrocellulose membranes. The membranes were blocked with 5% dry milk in Tris-buffered saline-Tween 20 (TBST), probed with primary antibodies anti EREK1/2 or p-ERK1/2 (Cell signaling), polyclonal LC3 antibody (Novus biologicals, Littleton, Colo.). The antibodies were diluted in TBST containing 2.5% dry milk and incubated at 4 C overnight. After the membranes were washed with TBST, they were incubated with horseradish peroxidase-conjugated anti-rabbit or anti-mouse secondary antibody (Amersham Life Science, Cleveland, Ohio). Mouse anti-actin and donkey anti-mouse secondary antibodies (Sigma Chemical, St. Louis, Mo.) were used to monitor-actin expression to ensure equal loading of proteins. Chemiluminescent detection was performed with Chemi-glow detection reagents (Alpha Innotech, San Leandro, Calif.). The blots were visualized with a FluorChem 8900 imager and quantified by a densitometer using the Alpha Imager application program (Alpha Innotech, San Leandro, Calif.).

MDA-MB-231 cells [2] = experiment: MTS cell viability/proliferation assay; assay type: cell-based, human; conditions: MTS assay, MB-231
Source text: Viable and dead cells were detected by the trypan blue exclusion assay, the viability and/or proliferation of cells a MTS assay was used [Akar U, et al. Autophagy 2008: 4:669-79].
as §2, with “Two days after transfection, the medium was removed and replaced by 180 μl of medium plus 20 μl of MTS and the cells were incubated under normal conditions until the color changed.” left out
(aka proliferation assay, in this case MTS assay was used. MTS, MTT, XTT all similar assays often used as cell viability/toxicity assay). […] Plates were read at 490 nm wavelength in an Elisa plate reader (Kinetic Microplate Reader, Molecular Devices Corporation, Sunnyvale, Calif.).

MCF7/Dox resistant cells = experiment: MTS cell viability/proliferation assay; assay type: cell-based, human; conditions: MTS assay
Source text: as §2, §1

MCF-7 cells [3] = experiment: Clonogenic survival assay; assay type: cell-based, human; conditions: various concentrations over two weeks, vs untreated
Method: (§4) To study the effect of CaMK-III growth of ER(−) and ER(+) breast cancer cells we performed a clonogenic assay, which is based on the ability of a single cell to grow into a colony (Franken N A, et al. Nat Protoc 2006: 1:2315-9), using MDA-MB-231 and MCF-7 cells, respectively. Cells were transfected with either CaMK-III or control siRNA (50 nM) […] over a period of two weeks.
(§5) This assay is an in vitro cell survival assay based on the ability of a single cell to grow into a colony. Briefly, cells (500 cells/well) were transfected with control siRNA or CaMK-III siRNA every week and grown for 2 to 3 weeks. Cells were stained with crystal violet and colonies were counted. Each experiment was repeated twice.
To study the effect of 5-HT1B on the survival and colony formation of breast cancer cells a clonogenic survival assay was performed using various concentrations of […] over a period of two weeks. This assay is based on the ability of a single cell to grow into a colony [Franken N A, et al. Nat Protoc 2006: 1:2315-2319]. […] Cell death and detachment as well as reduced cell number was observed.
This assay is an in vitro cell survival assay based on the ability of a single cell to grow into a colony. […] Cells were stained with crystal violet and colonies cells were counted. […]

MCF7 and MDA-MB231 cells = experiment: Acridine orange autophagy assay with MEK inhibitor PD98059; assay type: cell-based, human
Method: as §3

MCF-7 cells [4] = experiment: Apoptosis / cell death in MCF-7 cells (Annexin V, FACS); assay type: cell-based, human; conditions: Annexin V, MCF cells
Method: (§6) Apoptosis was assessed by an Annexin V assay, monitoring PARP and caspase 9 cleavage by Western blot. To provide a comparative assay of apoptosis by Annexin V labeling, tumor cells (1×10^6) treated with CaMK-III siRNA or control siRNA for 24 to 96 hours were harvested and washed with PBS. Cells were resuspended in binding buffer and stained with Annexin V and propidium iodide (PI) according to the manufacturer's protocol (BD Pharmingen Annexin V kit, San Diego, Calif.). Positive cells were detected and quantified by FACS analysis.

[5] = test system: STAT3, Bcl-2 and PI3K/Akt pathways; experiment: Signaling pathways after SB-224289 in breast cancer cells; assay type: cell-based; conditions: preliminary studies
[6] = mouse, in vivo
[7] = test system: ER+ MCF-7 breast cancer cells; experiment: Cell proliferation on serotonin treatment (cell counting); assay type: cell-based, human
MDA-MB-231 cells [8] = experiment: Annexin V staining and FACS analysis of apoptosis; assay type: cell-based, human
Method: To investigate whether inhibition of CaMK-III sensitizes drug (doxorubicin)-resistant MCF7/DoxR and MDA-MB-231 cells to chemotherapy, cells were treated with either CaMK-III (50 nM) or control siRNA (50 nM) for 24 hours and then with doxorubicin (ED50 dose) for 48 hours. The ED50 of doxorubicin was determined from a dose-escalation study in a proliferation assay. […] To determine the percent of cells undergoing apoptosis in response to doxorubicin alone and in combination with CaMK-III siRNA was detected by Annexin V staining and FACS analysis.
as §6

MDA-MB-231 cells [9] = experiment: Clonogenic survival assay; assay type: cell-based, human; conditions: paclitaxel 2 nM + CaMK-III siRNA
Method: as §4, §5
This assay is an in vitro cell survival assay based on the ability of a single cell to grow into a colony. Briefly, cells (500 cells/well) were transfected with different siRNA as described above and at 48 h post-transfection, cells were trypsinized and seeded into 6-well plates in the medium (500 cells/mL). Cells were transfected with control siRNA or CaMK-III siRNA every week and grown for 2 to 3 weeks. Cells were stained with crystal violet and colonies cells were counted. Each group was assayed in triplicate dishes, and each experiment was repeated twice.

Compound: CCCCCCCCCCCCOc1ccc2[nH]cc(CCN)c2c1.Cl [KD06]
- toxicity against normal breast epithelium (MCF10A): not toxic
- potency relative to 5-NT (breast cancer cells): more potent than 5-NT
- cell survival (O.D.) in a large panel of breast cancer cells (breast cancer cells; incl. MDA-468, BT20, MDa-MB231, SKBR3, MDA-MB435, T47D, ZR75.1): effective against almost all breast cancer cell lines
- cAMP levels (5-HT1B/1D receptor): decrease cAMP levels
- effect of compound after knockdown of 5-HT1B or 5-HT1D receptor [1]: blunts the effect

Compound: COc1ccc(NC(=O)c2ccc(-c3ccc(-c4noc(C)n4)cc3C)cc2)cc1OCCN(C)C [SB216641]
- cell viability (MCF7 cells; antagonist alone): 31%
- cell viability (MCF7 cells; with 3-MA, p<0.05): 71%
- percentage of acridine orange positive cells (MCF7 breast cancer cells): 17%
- phosphorylation of ERK (p42/p44) (ERK (p42/p44) and LC3-II): induced phosphorylation of ERK (p42/p44)

Compound: Cc1nc(-c2ccc(-c3ccc(C(=O)N4CCc5cc6c(cc54)C4(CCN(C)CC4)CO6)cc3)c(C)c2)no1 [SB224289]
- inhibition of cell proliferation (MDA-MB-231 cells [2]): dose-dependent inhibition
- EC50 (MCF7 cells; Homo sapiens, MCF7, MCF cells): 4.4 µM
- inhibition of cell proliferation (MCF7 cells; MTS assay): dose-dependent inhibition
- cell viability (MCF7 cells; antagonist alone): 42%
- cell viability (MCF7 cells; with 3-MA, p<0.05): 61%
- inhibition of cell proliferation (MCF7/Dox resistant cells): dose-dependent inhibition
- colony formation (MCF-7 cells [3]): grew more slowly and produced fewer colonies
- incidence of autophagy (MCF7 breast cancer cells; antagonist alone): 22.4%
- percentage of acridine orange positive cells (MCF7 breast cancer cells): 23%
- incidence of autophagy (MCF7 breast cancer cells; with 3-MA): 12%
- percent positive cells with autophagy (MCF7 and MDA-MB231 cells; antagonist alone): 29.2%
- percent positive cells with autophagy (MCF7 and MDA-MB231 cells; with ERK inhibitor (MEK inhibitor PD98059)): 18%
- induction of apoptosis (MCF-7 cells [4]): induced apoptosis in a dose dependent manner
- LC3-II, marker of autophagy (ERK (p42/p44) and LC3-II; MCF7 and MCF7/Dox-R cells): induction of LC3-II
- phosphorylation of ERK (p42/p44) (ERK (p42/p44) and LC3-II): induced phosphorylation of ERK (p42/p44)
- STAT3, Bcl-2 and PI3K/Akt pathways [5]: inhibits the STAT3 and Bcl-2 pathways, as well as the PI3K/Akt pathway
- toxicity in mice [6]: quite toxic in mice

Compound: NCCc1c[nH]c2ccc(O)cc12 [Serotonin, 5-hydroxytryptamine]
- cell proliferation [7]: induced proliferation

Compound: COc1cccc2c1C(=O)c1c(O)c3c(c(O)c1C2=O)C[C@@](O)(C(=O)CO)C[C@@H]3O[C@H]1C[C@H](N)[C@H](O)[C@H](C)O1 [doxorubicin]
- apoptosis induced by doxorubicin (Annexin V positive cells) (MDA-MB-231 cells [8]; doxorubicin alone, 48 h): 5%
- apoptosis induced by doxorubicin (Annexin V positive cells) (MDA-MB-231 cells [8]; doxorubicin with CaMK-III siRNA): 55%

Compound: CC(=O)O[C@H]1C(=O)[C@@]2(C)[C@H]([C@H](OC(=O)c3ccccc3)[C@]3(O)C[C@H](OC(=O)[C@H](O)[C@@H](NC(=O)c4ccccc4)c4ccccc4)C(C)=C1C3(C)C)[C@]1(OC(C)=O)CO[C@@H]1C[C@@H]2O [paclitaxel]
- inhibition of colony formation by paclitaxel with CaMK-III siRNA (MDA-MB-231 cells [9]): enhances efficacy
